The target in data set [1] is T1, CREB-binding protein/Histone acetyltransferase p300 (Homo sapiens, UniProt Q09472+Q92793). In words: Binding affinity to His-tagged human CH1 domain of p300 (323 to 423 residues)expressed in Escherichia coli Rosetta (DE3)/CBP (unknown origin) by fluorescence polarization assay. A general note: In fluorescence polarisation assays a small probe gives low polarisation when free and higher when bound to something large.

For data set [2], the target named is T2, HIF1A/p300/CREB-binding protein (Homo sapiens) (UniProt Q09472+Q16665+Q92793). In words: Inhibition of hypoxia-induced HIF1alpha/P300-CBP interaction mediated gene transcriptional activity in human HeLa cells co-transfected with luciferase reporter plasmid containing HRE and pRL-CMV vector at 25 uM incubated for 24 hrs under hypoxic condition by HRE-dependent dual luciferase reporter gene assay. The data set is classed as cell-based. In general terms: In a reporter assay the amount or activity of a reporter protein is the signal.

Data set [3] deals with HeLa. Put plainly: Downregulation of GLUT1 mRNA expression in human HeLa cells at 25 uM measured after 24 hrs under hypoxia condition by RT-PCR analysis. It counts as functional, cell-based.
In data set [4] the test system is HeLa. In words: Downregulation of HK1 mRNA expression in human HeLa cells at 25 uM measured after 24 hrs under hypoxia condition by RT-PCR analysis. The data set is classed as functional, cell-based.
The test system of data set [5] is HeLa. In words: Downregulation of VEGF mRNA expression in human HeLa cells at 25 uM measured after 24 hrs under hypoxia condition by RT-PCR analysis. The data set is classed as functional, cell-based.
Data set [6] deals with HeLa. Put plainly: Cytotoxicity against human HeLa cells assessed as reduction in cell viability measured after 24 hrs under hypoxia condition by MTT assay. The data set is classed as functional, cell-based. (Formazan colour is commonly taken as a measure of viable cells.)
Data set [7] has as its system HeLa. Put plainly: Cytotoxicity against human HeLa cells assessed as cell growth inhibition measured after 24 hrs by MTT assay. It counts as functional, cell-based.
The subject of a further data set is MDA-MB-231. Put plainly: Cytotoxicity against human MDA-MB-231 cells assessed as cell growth inhibition measured after 24 hrs by MTT assay. The data set is classed as functional, cell-based.
A further data set has as its system A549. Put plainly: Cytotoxicity against human A549 cells assessed as cell growth inhibition measured after 24 hrs by MTT assay. The data set is classed as functional, cell-based.
For data set [8], the target named is T2, HIF1A/p300/CREB-binding protein (Homo sapiens). Put plainly: Inhibition of hypoxia-induced HIF1alpha/P300-CBP interaction in human HeLa cells at 10 uM measured after 24 hrs by co-immunoprecipiation assay. The data set is classed as cell-based.
The target is the same in data set [9]. Put plainly: Inhibition of HA-tagged CTAD (786 to 826 residues) HIF1alpha/Flag-tagged P300 CH1 domain (323 to 423 residues)/CBP (unknown origin) interaction expressed in HEK293T cells measured after 24 hrs by co-iimunoprecipitation assay. It counts as cell-based.
For data set [10], the target named is T1, CREB-binding protein/Histone acetyltransferase p300. In words: Binding affinity to p300/CBP in hypoxia-induced human HeLa cells assessed as p300/CBP pull down at 25 uM measured after 12 hrs pulldown-based Western blot analysis.
Data set [11] can be described thus: Stability of the compound in mouse serum by LC/MS analysis. It counts as ADME, cell-free.
The test system of data set [12] is HeLa. In words: Downregulation of VEGF protein expression in human HeLa cells at 25 uM measured after 24 hrs under hypoxia condition by Western blot analysis. It counts as functional, cell-based.
Data set [13] relates to HeLa. In words: Downregulation of HK1 protein expression in human HeLa cells at 25 uM measured after 24 hrs under hypoxia condition by Western blot analysis. It counts as functional, cell-based.
In data set [14] the test system is HeLa. Put plainly: Downregulation of GLUT1 protein expression in human HeLa cells at 25 uM measured after 24 hrs under hypoxia condition by Western blot analysis. The data set is classed as functional, cell-based.
Data set [15] is described as follows: Drug uptake in human HeLa cells measured after 4 hrs by tryphan blue staining based flow cytometry. It counts as ADME, cell-based.
Data set [16] has as its system HeLa. In words: Cytotoxicity against human HeLa cells assessed as cell membrane disruption measured after 4 hrs under hypoxia condition by LDH assay. It counts as functional, cell-based.

The source made the active and inactive calls. The rule behind the calls is not given here. Where a SMILES comes first, the peptide text is derived from it.

T1 sequence (Q09472 whole entry, looked up, the tested form may be a part): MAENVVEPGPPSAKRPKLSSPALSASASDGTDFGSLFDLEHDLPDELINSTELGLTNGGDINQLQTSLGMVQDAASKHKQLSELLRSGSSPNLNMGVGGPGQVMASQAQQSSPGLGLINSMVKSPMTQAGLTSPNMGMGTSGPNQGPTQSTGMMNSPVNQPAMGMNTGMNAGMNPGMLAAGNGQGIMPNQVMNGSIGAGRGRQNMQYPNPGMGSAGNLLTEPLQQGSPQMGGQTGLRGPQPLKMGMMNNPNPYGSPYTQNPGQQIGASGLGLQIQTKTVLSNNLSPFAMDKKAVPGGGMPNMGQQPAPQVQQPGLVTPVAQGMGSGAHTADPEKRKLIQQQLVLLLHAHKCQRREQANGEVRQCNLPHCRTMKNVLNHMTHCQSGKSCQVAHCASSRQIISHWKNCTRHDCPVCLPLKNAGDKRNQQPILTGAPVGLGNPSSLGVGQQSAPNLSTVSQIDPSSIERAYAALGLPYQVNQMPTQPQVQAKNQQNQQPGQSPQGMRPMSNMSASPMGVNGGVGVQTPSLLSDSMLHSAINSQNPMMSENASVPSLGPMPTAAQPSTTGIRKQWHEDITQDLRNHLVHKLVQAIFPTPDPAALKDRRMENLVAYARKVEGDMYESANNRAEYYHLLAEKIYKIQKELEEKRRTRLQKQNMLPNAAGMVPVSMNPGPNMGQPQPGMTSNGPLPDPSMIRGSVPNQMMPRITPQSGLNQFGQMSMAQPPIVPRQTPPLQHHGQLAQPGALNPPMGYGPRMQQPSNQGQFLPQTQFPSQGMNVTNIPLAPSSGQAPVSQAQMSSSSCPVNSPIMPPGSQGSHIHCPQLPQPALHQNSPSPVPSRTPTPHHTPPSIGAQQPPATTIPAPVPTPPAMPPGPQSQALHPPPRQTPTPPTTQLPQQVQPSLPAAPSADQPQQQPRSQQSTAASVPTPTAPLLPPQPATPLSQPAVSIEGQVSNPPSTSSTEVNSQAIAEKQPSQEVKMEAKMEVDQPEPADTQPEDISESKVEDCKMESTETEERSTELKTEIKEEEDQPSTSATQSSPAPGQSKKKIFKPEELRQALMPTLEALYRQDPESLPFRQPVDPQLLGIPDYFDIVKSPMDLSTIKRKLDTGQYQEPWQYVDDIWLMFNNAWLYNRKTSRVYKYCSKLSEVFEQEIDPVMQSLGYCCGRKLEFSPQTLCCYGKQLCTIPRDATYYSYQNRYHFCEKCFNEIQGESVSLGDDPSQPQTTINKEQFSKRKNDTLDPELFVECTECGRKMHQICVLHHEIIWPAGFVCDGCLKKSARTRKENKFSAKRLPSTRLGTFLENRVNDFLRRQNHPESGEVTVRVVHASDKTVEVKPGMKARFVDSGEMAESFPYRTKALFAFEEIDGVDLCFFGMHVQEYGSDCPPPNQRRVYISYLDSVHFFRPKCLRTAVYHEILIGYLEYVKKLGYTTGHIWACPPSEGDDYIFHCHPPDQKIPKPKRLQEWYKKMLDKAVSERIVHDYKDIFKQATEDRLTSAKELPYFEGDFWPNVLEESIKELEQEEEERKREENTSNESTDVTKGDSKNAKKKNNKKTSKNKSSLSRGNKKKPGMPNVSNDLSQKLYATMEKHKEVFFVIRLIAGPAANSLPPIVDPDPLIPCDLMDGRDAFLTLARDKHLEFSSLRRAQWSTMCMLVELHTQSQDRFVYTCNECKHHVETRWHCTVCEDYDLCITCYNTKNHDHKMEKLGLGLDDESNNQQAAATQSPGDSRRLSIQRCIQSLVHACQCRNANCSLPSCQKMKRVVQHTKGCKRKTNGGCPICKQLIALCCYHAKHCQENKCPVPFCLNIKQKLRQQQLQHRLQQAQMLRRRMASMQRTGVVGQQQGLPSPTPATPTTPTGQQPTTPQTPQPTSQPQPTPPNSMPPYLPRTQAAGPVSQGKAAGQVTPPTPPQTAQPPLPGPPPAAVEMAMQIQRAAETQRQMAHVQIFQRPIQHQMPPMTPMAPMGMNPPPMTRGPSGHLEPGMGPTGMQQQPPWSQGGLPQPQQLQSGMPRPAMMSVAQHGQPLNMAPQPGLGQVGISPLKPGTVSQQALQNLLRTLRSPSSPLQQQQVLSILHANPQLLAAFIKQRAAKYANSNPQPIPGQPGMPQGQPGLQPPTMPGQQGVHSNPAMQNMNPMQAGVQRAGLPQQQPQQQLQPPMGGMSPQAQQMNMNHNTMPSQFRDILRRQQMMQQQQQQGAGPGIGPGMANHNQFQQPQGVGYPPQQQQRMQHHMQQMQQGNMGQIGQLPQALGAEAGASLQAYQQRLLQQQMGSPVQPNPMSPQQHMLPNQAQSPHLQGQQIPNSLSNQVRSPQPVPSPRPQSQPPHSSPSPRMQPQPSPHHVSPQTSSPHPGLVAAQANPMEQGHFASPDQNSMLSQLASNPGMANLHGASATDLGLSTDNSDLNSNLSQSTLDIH
T1 sequence (Q92793 whole entry, looked up, the tested form may be a part): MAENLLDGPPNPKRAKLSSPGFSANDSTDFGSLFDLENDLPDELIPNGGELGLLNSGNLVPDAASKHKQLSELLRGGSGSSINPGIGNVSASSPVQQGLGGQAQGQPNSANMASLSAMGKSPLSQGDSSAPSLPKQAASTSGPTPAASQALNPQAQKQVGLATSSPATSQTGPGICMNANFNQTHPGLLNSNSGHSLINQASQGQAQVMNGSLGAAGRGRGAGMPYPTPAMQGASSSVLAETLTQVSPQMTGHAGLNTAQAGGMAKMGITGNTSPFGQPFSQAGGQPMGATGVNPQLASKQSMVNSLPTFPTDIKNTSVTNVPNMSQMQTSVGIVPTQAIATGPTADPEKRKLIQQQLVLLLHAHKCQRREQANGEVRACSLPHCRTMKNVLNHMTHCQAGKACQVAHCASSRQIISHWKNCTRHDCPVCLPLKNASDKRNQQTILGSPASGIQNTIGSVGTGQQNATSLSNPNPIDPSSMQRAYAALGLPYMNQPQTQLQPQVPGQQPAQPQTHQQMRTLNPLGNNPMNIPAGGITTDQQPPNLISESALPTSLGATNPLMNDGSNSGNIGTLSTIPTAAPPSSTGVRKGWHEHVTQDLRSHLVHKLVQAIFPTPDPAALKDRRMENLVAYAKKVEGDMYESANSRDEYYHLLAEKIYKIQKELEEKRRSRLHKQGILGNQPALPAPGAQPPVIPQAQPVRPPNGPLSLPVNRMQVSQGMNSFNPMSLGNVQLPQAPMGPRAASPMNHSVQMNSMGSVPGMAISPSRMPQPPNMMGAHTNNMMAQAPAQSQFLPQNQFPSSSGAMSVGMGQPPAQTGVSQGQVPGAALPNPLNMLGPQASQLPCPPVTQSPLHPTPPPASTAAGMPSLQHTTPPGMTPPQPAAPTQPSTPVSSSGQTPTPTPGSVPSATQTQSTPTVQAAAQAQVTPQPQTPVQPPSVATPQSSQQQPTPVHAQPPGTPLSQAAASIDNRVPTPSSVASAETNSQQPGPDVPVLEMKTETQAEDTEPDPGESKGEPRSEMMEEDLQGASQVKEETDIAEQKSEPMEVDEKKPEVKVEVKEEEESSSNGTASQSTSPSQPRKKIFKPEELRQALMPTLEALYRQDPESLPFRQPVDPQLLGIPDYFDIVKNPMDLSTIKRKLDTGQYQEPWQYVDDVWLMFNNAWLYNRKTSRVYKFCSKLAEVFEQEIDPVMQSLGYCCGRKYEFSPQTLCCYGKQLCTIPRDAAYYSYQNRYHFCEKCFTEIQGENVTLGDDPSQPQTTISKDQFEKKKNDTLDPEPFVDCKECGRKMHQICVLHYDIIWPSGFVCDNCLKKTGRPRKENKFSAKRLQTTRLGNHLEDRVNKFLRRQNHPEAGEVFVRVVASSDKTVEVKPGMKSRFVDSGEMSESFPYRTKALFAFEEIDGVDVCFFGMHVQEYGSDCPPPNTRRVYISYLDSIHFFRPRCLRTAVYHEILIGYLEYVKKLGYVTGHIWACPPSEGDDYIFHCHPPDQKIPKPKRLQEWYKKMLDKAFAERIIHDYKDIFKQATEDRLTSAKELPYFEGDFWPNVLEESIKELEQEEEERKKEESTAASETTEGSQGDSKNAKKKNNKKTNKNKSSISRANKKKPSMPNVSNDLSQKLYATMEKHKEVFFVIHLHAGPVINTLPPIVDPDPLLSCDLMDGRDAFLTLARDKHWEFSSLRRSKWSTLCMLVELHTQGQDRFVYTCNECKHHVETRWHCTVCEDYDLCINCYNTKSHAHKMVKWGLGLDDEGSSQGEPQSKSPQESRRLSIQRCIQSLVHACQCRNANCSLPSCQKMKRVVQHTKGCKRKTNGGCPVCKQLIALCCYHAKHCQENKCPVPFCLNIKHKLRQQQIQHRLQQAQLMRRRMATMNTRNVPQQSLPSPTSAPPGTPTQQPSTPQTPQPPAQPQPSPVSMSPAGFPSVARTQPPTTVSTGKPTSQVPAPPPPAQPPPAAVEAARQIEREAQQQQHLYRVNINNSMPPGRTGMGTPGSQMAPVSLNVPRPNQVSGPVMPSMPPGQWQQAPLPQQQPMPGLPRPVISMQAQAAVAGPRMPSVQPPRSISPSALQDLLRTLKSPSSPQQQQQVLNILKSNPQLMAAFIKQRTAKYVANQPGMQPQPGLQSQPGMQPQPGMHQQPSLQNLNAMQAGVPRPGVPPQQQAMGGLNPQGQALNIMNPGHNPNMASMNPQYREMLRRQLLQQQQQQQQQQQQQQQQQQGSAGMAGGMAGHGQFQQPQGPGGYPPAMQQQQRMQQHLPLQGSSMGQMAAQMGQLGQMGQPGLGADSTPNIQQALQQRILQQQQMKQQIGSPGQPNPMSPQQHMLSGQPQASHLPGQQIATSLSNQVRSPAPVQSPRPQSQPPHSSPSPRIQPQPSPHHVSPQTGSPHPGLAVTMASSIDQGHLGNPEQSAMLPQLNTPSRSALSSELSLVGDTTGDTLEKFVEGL

For the compound `CC[C@H](C)[C@H](NC(=O)[C@H](CCCNC(=N)N)NC(=O)[C@H](CC(=O)O)NC(=O)[C@H](CC(C)C)NC(=O)CNC(=O)[C@H](CCSC)NC(=O)[C@H](CCC(=O)O)NC(=O)[C@@H](NC(=O)[C@@H](NC(=O)[C@H](CC(C)C)NC(=O)[C@H](CO)NC(=O)[C@H](CCSC)NC(=O)[C@H](CC(C)C)NC(=O)[C@@H](NC(=O)[C@H]1CNC(=O)[C@@H](N)CC(=O)N[C@@H](CC(=O)O)C(=O)N[C@@H](CCC(=O)O)C(=O)N1)C(C)C)C(C)C)[C@@H](C)CC)C(=O)N[C@@H](CCCCN)C(=O)N[C@@H](CCC(=O)O)C(=O)N[C@@H](CC(C)C)C(=O)N1CCC[C@H]1C(=O)N[C@@H](CCC(=O)O)C(=O)N[C@@H](CC(C)C)C(N)=O`, the Kd in data set [1] was determined as 33.7 nM.

Turning to `CC[C@H](C)[C@H](NC(=O)[C@@H]1CNC(=O)[C@@H](N)CC(=O)N[C@@H](CC(=O)O)C(=O)N[C@@H](CCC(=O)O)C(=O)N1)C(=O)N[C@@H](CC(C)C)C(=O)N[C@@H](CCSC)C(=O)N[C@@H](CO)C(=O)N[C@@H](CC(C)C)C(=O)N[C@H](C(=O)N[C@H](C(=O)N[C@@H](CCC(=O)O)C(=O)N[C@@H](CCSC)C(=O)NCC(=O)N[C@@H](CC(C)C)C(=O)N[C@@H](CC(=O)O)C(=O)N[C@@H](CCCNC(=N)N)C(=O)N[C@@H](Cc1c[nH]c2ccccc12)C(=O)N[C@@H](CCCCN)C(=O)N[C@@H](CCC(=O)O)C(=O)N[C@@H](CC(C)C)C(=O)N1CCC[C@H]1C(=O)N[C@@H](CCC(=O)O)C(=O)N[C@@H](CC(C)C)C(N)=O)[C@@H](C)CC)C(C)C` (HELM PEPTIDE1{D.E.[O=C([C@H](CN[*:3])N[*:1])[*:2]].I.L.M.S.L.V.I.E.M.G.L.D.R.W.K.E.L.P.E.L.[am]}|CHEM1{[N[C@@H](CC(=O)[*:1])C(=O)[*:2]]}$PEPTIDE1,CHEM1,1:R1-1:R1|PEPTIDE1,CHEM1,3:R3-1:R2$$$V2.0), the inhibition entry in [2], in data set [8] and in data set [9] was “Active” throughout. The outcome (in the data set on HeLa [3]; in the data set with HeLa [4]; with HeLa [5]; in the data set on A549; in data set [10]; in the data set with HeLa [12]) was Active. Further, the outcome in the data set on HeLa [13] and in the data set on HeLa [14] was Active. Besides, the “growth inhibition (GI)” value in the data set with HeLa [6], in the data set on HeLa [7] and with MDA-MB-231 was “Active” throughout. For the same compound, the Stability entry in data set [11] was “Stable”. The Kd in data set [1] came out at 21.4 nM.

Turning to H-DEEILMSLVIEMGLDRIKELPEL-OH, the Drug uptake entry in data set [15] is reported as “Active”.

Regarding H-DEEILMSLVIEMGLDRWKELPEL-OH, the result (in data set [10]; in the data set with HeLa [16]) was Active. For the same compound, the Stability result in data set [11] is “Stable”. Further, in data set [1], the Kd is 22.3 nM.

Turning to H-DEEILWSLVIEMGLDRIKELPEL-OH, the outcome in the data set with HeLa [16] was Active. This compound returned a Kd in [1] of 32 nM.

The compound H-DEEILWSLVIEMGLDRWKELPEL-OH returned a Kd in data set [1] of 29.5 nM.

For H-DEEVLMSLVIEM-OH, the Kd in data set [1] worked out at 228.2 nM.

Compound H-DEEVLMSLVIEMGLDRIKELPEL-OH gave a Kd in data set [1] of 37.1 nM.

As to “H-DEEVLMSLVIEMGLDRIKELPELWLGQNEFDFMTDF-OH”, the Kd in [1] is recorded as 17.7 nM.

For the compound H-DEEVLMSLVIEMGLDRWKELPEL-OH, the Drug uptake entry in data set [15] is “Active”.

For H-DEEVLWSLVIEMGLDRIKELPEL-OH, the Drug uptake entry in data set [15] is listed as “Active”.

In [1], H-DEEVLWSLVIEMGLDRWKELPEL-OH had a Kd of 36.2 nM.

Take H-GLDRIKELPELWLG-OH: in data set [1], the dissociation constant (Kd) is given as 1544 nM.

Regarding H-LPELWLGQNEFDFMTDF-OH, in data set [1], the Kd came to 226 nM.

Consider H-QNEFDFMTDF-OH, for which the Kd in [1] was found to be 312.5 nM.

For orientation: Kd means the concentration at which binding is half-saturated. Low readings indicate tighter binding, high ones weaker binding.
